# Assay results reported in ChEMBL document CHEMBL1147911, “Synthesis and evaluation of novel benzimidazole derivative [Bz-Im] and its radio/biological studies” (Bioorg Med Chem Lett, 2007).
# Columns and labels:
# [1] = test system: Aspergillus niger; assay: Antifungal activity against Aspergillus niger at 20 ug/ml after seven days by agar plate method; format: functional; settings: 168 h
# [2] = test system: Aspergillus flavus; assay: Antifungal activity against Aspergillus flavus at 20 ug/ml after seven days by agar plate method; format: functional; settings: 168 h
# [3] = test system: Blood; assay: Biodistribution in Albino mouse blood at 10 uCi after 1 hr; format: ADME, organism-based; settings: in vivo
# [4] = test system: Aspergillus flavus; assay: Antifungal activity against Aspergillus flavus at 10 ug/ml after seven days by agar plate method; format: functional; settings: 168 h
# [5] = test system: Spleen; assay: Biodistribution in Albino mouse spleen at 10 uCi after 2 hr; format: ADME, organism-based; settings: in vivo
# [6] = test system: Brain; assay: Biodistribution in Albino mouse brain at 10 uCi after 6 hr; format: ADME, organism-based; settings: in vivo
# [7] = test system: Aspergillus niger; assay: Antifungal activity against Aspergillus niger at 10 ug/ml after seven days by agar plate method; format: functional; settings: 168 h
# [8] = test system: Aspergillus flavus; assay: Antifungal activity against Aspergillus flavus at 50 ug/ml after seven days by agar plate method; format: functional; settings: 168 h
# [9] = test system: Intestine; assay: Biodistribution in Albino mouse intestine at 10 uCi after 4 hr; format: ADME, organism-based; settings: in vivo
# [10] = test system: Heart; assay: Biodistribution in Albino mouse heart at 10 uCi after 4 hr; format: ADME, organism-based; settings: in vivo
# [11] = test system: Liver; assay: Biodistribution in Albino mouse liver at 10 uCi after 8 hr; format: ADME, organism-based; settings: in vivo
# [12] = target: T1, Cholecystokinin receptor type A (Cavia porcellus, UniProt Q63931); assay: Displacement of [125I](BH)CCK8 from Guinea pig CCK1 after 30 mins by receptor binding assay
# T1 sequence (Q63931 whole entry): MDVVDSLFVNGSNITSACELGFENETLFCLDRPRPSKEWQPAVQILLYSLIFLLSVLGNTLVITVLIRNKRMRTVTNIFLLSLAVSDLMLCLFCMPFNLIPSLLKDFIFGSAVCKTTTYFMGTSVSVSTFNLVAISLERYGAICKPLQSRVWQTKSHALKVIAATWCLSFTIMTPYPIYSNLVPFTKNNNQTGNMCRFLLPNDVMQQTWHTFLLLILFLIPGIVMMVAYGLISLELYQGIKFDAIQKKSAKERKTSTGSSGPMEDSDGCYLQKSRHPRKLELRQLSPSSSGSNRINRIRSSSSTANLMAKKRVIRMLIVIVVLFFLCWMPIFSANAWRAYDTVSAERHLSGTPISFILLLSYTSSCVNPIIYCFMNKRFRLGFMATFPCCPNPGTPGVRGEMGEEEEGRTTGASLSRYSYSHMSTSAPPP
# [13] = test system: Aspergillus niger; assay: Antifungal activity against Aspergillus niger at 50 ug/ml after seven days by agar plate method; format: functional; settings: 168 h
# [14] = test system: Heart; assay: Biodistribution in Albino mouse heart at 10 uCi after 2 hr; format: ADME, organism-based; settings: in vivo
# [15] = test system: Blood; assay: Biodistribution in Albino mouse blood at 10 uCi after 2 hr; format: ADME, organism-based; settings: in vivo
# [16] = test system: Brain; assay: Biodistribution in Albino mouse brain at 10 uCi after 4 hr; format: ADME, organism-based; settings: in vivo
# [17] = test system: Kidney; assay: Biodistribution in Albino mouse kidney at 10 uCi after 2 hr; format: ADME, organism-based; settings: in vivo
# [18] = test system: Blood; assay: Biodistribution in Albino mouse blood at 10 uCi after 6 hr; format: ADME, organism-based; settings: in vivo
# [19] = test system: Intestine; assay: Biodistribution in Albino mouse intestine at 10 uCi after 1 hr; format: ADME, organism-based; settings: in vivo
# [20] = test system: Kidney; assay: Biodistribution in Albino mouse kidney at 10 uCi after 1 hr; format: ADME, organism-based; settings: in vivo
# [21] = test system: Stomach; assay: Biodistribution in Albino mouse stomach at 10 uCi after 4 hr; format: ADME, organism-based; settings: in vivo
# [22] = test system: Kidney; assay: Biodistribution in Albino mouse kidney at 10 uCi after 8 hr; format: ADME, organism-based; settings: in vivo
# [23] = test system: Stomach; assay: Biodistribution in Albino mouse stomach at 10 uCi after 1 hr; format: ADME, organism-based; settings: in vivo
# [24] = test system: Spleen; assay: Biodistribution in Albino mouse spleen at 10 uCi after 1 hr; format: ADME, organism-based; settings: in vivo
# [25] = test system: Heart; assay: Biodistribution in Albino mouse heart at 10 uCi after 8 hr; format: ADME, organism-based; settings: in vivo
# [26] = test system: Liver; assay: Biodistribution in Albino mouse liver at 10 uCi after 6 hr; format: ADME, organism-based; settings: in vivo
# [27] = test system: Spleen; assay: Biodistribution in Albino mouse spleen at 10 uCi after 4 hr; format: ADME, organism-based; settings: in vivo
# [28] = test system: Blood; assay: Biodistribution in Albino mouse blood at 10 uCi after 8 hr; format: ADME, organism-based; settings: in vivo
# [29] = test system: Stomach; assay: Biodistribution in Albino mouse stomach at 10 uCi after 8 hr; format: ADME, organism-based; settings: in vivo
# [30] = test system: Brain; assay: Biodistribution in Albino mouse brain at 10 uCi after 2 hr; format: ADME, organism-based; settings: in vivo
# [31] = test system: Blood; assay: Biodistribution in Albino mouse blood at 10 uCi after 4 hr; format: ADME, organism-based; settings: in vivo
# [32] = test system: Intestine; assay: Biodistribution in Albino mouse intestine at 10 uCi after 6 hr; format: ADME, organism-based; settings: in vivo
# [33] = test system: Heart; assay: Biodistribution in Albino mouse heart at 10 uCi after 1 hr; format: ADME, organism-based; settings: in vivo
# [34] = test system: Liver; assay: Biodistribution in Albino mouse liver at 10 uCi after 4 hr; format: ADME, organism-based; settings: in vivo
# [35] = test system: Kidney; assay: Biodistribution in Albino mouse kidney at 10 uCi after 6 hr; format: ADME, organism-based; settings: in vivo
# [36] = test system: Brain; assay: Biodistribution in Albino mouse brain at 10 uCi after 8 hr; format: ADME, organism-based; settings: in vivo
# [37] = test system: Spleen; assay: Biodistribution in Albino mouse spleen at 10 uCi after 6 hr; format: ADME, organism-based; settings: in vivo
# [38] = test system: Spleen; assay: Biodistribution in Albino mouse spleen at 10 uCi after 8 hr; format: ADME, organism-based; settings: in vivo
# [39] = test system: Liver; assay: Biodistribution in Albino mouse liver at 10 uCi after 2 hr; format: ADME, organism-based; settings: in vivo
# [40] = test system: Kidney; assay: Biodistribution in Albino mouse kidney at 10 uCi after 4 hr; format: ADME, organism-based; settings: in vivo
# [41] = test system: Intestine; assay: Biodistribution in Albino mouse intestine at 10 uCi after 8 hr; format: ADME, organism-based; settings: in vivo
# [42] = test system: Liver; assay: Biodistribution in Albino mouse liver at 10 uCi after 1 hr; format: ADME, organism-based; settings: in vivo
# [43] = target: T2, Cholecystokinin receptor type A (Rattus norvegicus, UniProt P30551); assay: Displacement of [125I](BH)CCK8 from rat CCK1 after 30 mins by receptor binding assay
# T2 sequence (P30551 whole entry): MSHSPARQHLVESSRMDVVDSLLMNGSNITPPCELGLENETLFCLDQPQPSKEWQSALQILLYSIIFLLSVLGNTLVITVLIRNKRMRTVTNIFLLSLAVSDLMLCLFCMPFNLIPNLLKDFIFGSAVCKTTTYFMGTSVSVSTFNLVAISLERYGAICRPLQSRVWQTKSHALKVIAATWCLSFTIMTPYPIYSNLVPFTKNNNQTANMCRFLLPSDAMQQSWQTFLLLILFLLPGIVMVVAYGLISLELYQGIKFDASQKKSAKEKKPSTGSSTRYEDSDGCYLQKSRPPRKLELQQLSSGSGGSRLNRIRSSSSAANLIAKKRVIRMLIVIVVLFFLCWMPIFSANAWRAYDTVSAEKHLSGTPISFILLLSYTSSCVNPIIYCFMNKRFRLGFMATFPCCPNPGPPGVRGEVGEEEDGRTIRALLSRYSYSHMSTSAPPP
# [44] = test system: Heart; assay: Biodistribution in Albino mouse heart at 10 uCi after 6 hr; format: ADME, organism-based; settings: in vivo
# [45] = test system: Stomach; assay: Biodistribution in Albino mouse stomach at 10 uCi after 6 hr; format: ADME, organism-based; settings: in vivo
# [46] = test system: Stomach; assay: Biodistribution in Albino mouse stomach at 10 uCi after 2 hr; format: ADME, organism-based; settings: in vivo
# [47] = test system: Intestine; assay: Biodistribution in Albino mouse intestine at 10 uCi after 2 hr; format: ADME, organism-based; settings: in vivo
smiles,measurement,setting,value
C[C@@H]1[C@H](O)[C@@H](C)/C=C/C=C/C=C/C=C/C=C/C=C/C=C/[C@H](O[C@@H]2O[C@H](C)[C@@H](O)[C@H](N)[C@@H]2O)C[C@@H]2O[C@](O)(C[C@@H](O)C[C@@H](O)[C@H](O)CC[C@@H](O)C[C@@H](O)CC(=O)O[C@H]1C)C[C@H](O)[C@H]2C(=O)O [AMPHOTERICIN B],inhibition at 20 µg/mL,[1],79.9%
same,inhibition at 20 µg/mL,[2],86.4%
O=C1c2ccccc2C(=O)N1Cc1c(O)ccc2c(/C=C/c3ccccc3)cc3nc4ccccc4n3c12,Drug uptake,[3],3 % ID/g
same,inhibition at 10 µg/mL,[4],73.3%
same,Drug uptake,[5],15 % ID/g
same,Drug uptake,[6],1 % ID/g
same,inhibition at 10 µg/mL,[7],60.3%
same,inhibition at 50 µg/mL,[8],88.3%
same,Drug uptake,[9],0.2 % ID/g
same,Drug uptake,[10],0.3 % ID/g
same,Drug uptake,[11],15 % ID/g
same,IC50,[12],4.32 µM
same,inhibition at 50 µg/mL,[13],84.6%
same,Drug uptake,[14],0.4 % ID/g
same,Drug uptake,[15],2 % ID/g
same,Drug uptake,[16],0.45 % ID/g
same,Drug uptake,[17],7 % ID/g
same,Drug uptake,[18],0.5 % ID/g
same,Drug uptake,[19],0.5 % ID/g
same,Drug uptake,[20],5 % ID/g
same,Drug uptake,[21],3 % ID/g
same,inhibition at 20 µg/mL,[1],76.8%
same,Drug uptake,[22],5 % ID/g
same,Drug uptake,[23],1 % ID/g
same,Drug uptake,[24],10 % ID/g
same,Drug uptake,[25],0.2 % ID/g
same,Drug uptake,[26],15 % ID/g
same,Drug uptake,[27],14 % ID/g
same,Drug uptake,[28],0.5 % ID/g
same,Drug uptake,[29],9.5 % ID/g
same,inhibition at 20 µg/mL,[2],76.7%
same,Drug uptake,[30],0.2 % ID/g
same,Drug uptake,[31],2 % ID/g
same,Drug uptake,[32],3 % ID/g
same,Drug uptake,[33],1 % ID/g
same,Drug uptake,[34],18 % ID/g
same,Drug uptake,[35],5 % ID/g
same,Drug uptake,[36],1 % ID/g
same,Drug uptake,[37],12 % ID/g
same,Drug uptake,[38],11 % ID/g
same,Drug uptake,[39],25 % ID/g
same,Drug uptake,[40],2 % ID/g
same,Drug uptake,[41],3 % ID/g
same,Drug uptake,[42],18 % ID/g
same,IC50,[43],0.942 µM
same,Drug uptake,[44],0.3 % ID/g
same,Drug uptake,[45],7 % ID/g
same,Drug uptake,[46],2.5 % ID/g
same,Drug uptake,[47],0.5 % ID/g
